Results published in article PMC3023143 (Nature, 2011).

Key:
β1AR-m23 = experiment: Ligand efficacy at β1AR-m23; format: cell-based, turkey (Meleagris gallopavo); conditions: β1AR-m23, Supplementary Table 3
human β1AR = conditions: no reference given; cited from earlier work

In the case of `CC(CCc1ccc(O)cc1)NCCc1ccc(O)c(O)c1` (centres unmarked) [Dobutamine, dobutamine], the ligand efficacy class (β1AR-m23) is listed as “partial agonists” and the ligand efficacy class (human β1AR) is listed as “partial agonists”.
